Source: patent US5298488A, “CM-chitin derivatives and use thereof” (Fuji Photo Film Co., Ltd., priority 1990, dated 1994)
No end group written: not given here. CM‑Chitin = carboxymethyl chitin

Legend:
vitronectin = assay: Cell adhesion-inhibitory test against vitronectin (competitive assay, number of adhered cells); type: cell-based, human; details: endothelium cells of blood vessel, 37° C., one hour, 0 control 249
From the text: (§1) A method for determining the activity of the CM-chitin derivatives of the present invention for inhibiting adhesion of cells to fibronectin or vitronectin will be described below. The competitive assays used herein have widely been employed tin the field of biochemistry and are detailed in, for instance, "Method in Enzymology", 1981, 82, pp. 803-831; and J. P. KOKAI Nos. Hei 1-309682 and Hei 2-174797.
(§2) Commercially available fibroneotin (derived from human; purchased from Seikaqaku Kogyo K. K.) and vitronectin (derived from human; purchased from Funakoshi Co., Ltd.) each was diluted to 1.0 μ1/ml and 2.0 μ1/ml with PBS (NaH2 PO4 0.005 M+NaCl 0.07 M), 0.5 ml of the resulting diluted solution was dispensed into a plastic plate having 24 wells and incubated at 37° C. overnight to perform coating of the plate. Then bovine serum albumin (BSA 1%) was added followed by incubation at 37° C. for one hour for inhibiting the occurrence of nonspecific adsorption, then washing with PBS in the usual manner and sufficient drainage to give an adsorption plate.
[…] Each of the solutions (0.25 ml) was dispensed to the plate prepared above, 0.25 ml of a suspension of endothelium cells of blood vessel (4×10^6 cells/ml) was added to the plate and incubated at 37° C. for one hour to thus cause cohesion of the cells. The plate was washed three times with DMEM medium to remove non-adhesive cells, then the adhered cells were peeled off with a 0.025% EDTA trypsin solution and stained with a 2% Trypan Blue solution to determine the number of the adhered cells.

fibronectin = assay: Cell adhesion-inhibitory test against fibronectin (competitive assay, number of adhered cells); type: cell-based, human; details: endothelium cells of blood vessel, 37° C., one hour, 0 mg/ml control 160
From the text: as §1, §2
A CM-chitin derivative obtained through lyophilization was diluted with Dulbecco's Modified Eagles Medium (hereunder referred to as "DMEM") to give solutions of the CM-chitin derivative having concentrations of 0, 0.25, 0.5, 1.0 and 1.5 mg/ml respectively. Each of the solutions (0.25 ml) was dispensed to the plate prepared above, 0.25 ml of a suspension of endothelium cells of blood vessel (4×10^6 cells/ml) was added to the plate and incubated at 37° C. for one hour to thus cause cohesion of the cells. The plate was washed three times with DMEM medium to remove non-adhesive cells, then the adhered cells were peeled off with a 0.025% EDTA trypsin solution and stained with a 2% Trypan Blue solution to determine the number of the adhered cells.

[1] = system: human plasma rich in platelet; assay: Platelet coagulation-inhibitory activity in vitro, transmittance by aggregometer; type: cell-based; details: 37° C., 3 minutes preincubation; for Platelet Coagulation-Inhibitory Action IC50, ADP Stimulation: ADP stimulation (50 μM ADP solution); for Platelet Coagulation-Inhibitory Action IC50, Collagen Stimulation: collagen stimulation (200 μg/ml collagen solution)
Protocol: The platelet coagulation-inhibitory effect of the CM-chitin derivative of the present invention was assayed, in vitro, using human plasma rich in platelet. The experimental method will be described below.
To fresh human blood, there was added 1/9 volume of a 3.8% sodium citrate solution, the resulting mixture was centrifuged (1000 rpm; for 10 minutes) and the upper layer was separated as a plasma rich in platelet. A lyophilized CM-chitin derivative was dissolved in physiological saline to give a plurality of solutions having various concentrations ranging from 0 to 1.5 mg/ml. Each of the solutions (25 μ1) was added to 200 µl of the plasma, incubated at 37° C. for 3 minutes, then a 50 μM of ADP (adenosine diphosphate) solution or a 200 μg/ml collagen solution was added to determine the extent of coagulation in terms of transmittance determined by an aggregometer.
Rate of Coagulation Inhibition=(1-T/T .)×100%
T . : transmittance observed when a salt of CM-chitin derivative was not added.
T : transmittance observed when a salt of CM-chitin derivative was added.

[2] = concentration 10 mg/ml (so in the source)
[3] = concentration 50 mg/ml (so in the source)
[4] = concentration 100 mg/ml (so in the source)
[5] = concentration 300 mg/ml (so in the source)

Compound	Cell Adhesion-Inhibitory effect Against Vitronectin (number of adhered cells) (vitronectin; [2])	Cell Adhesion-Inhibitory effect Against Vitronectin (number of adhered cells) (vitronectin; [3])	Cell Adhesion-Inhibitory effect Against Vitronectin (number of adhered cells) (vitronectin; [4])	Cell Adhesion-Inhibitory effect Against Vitronectin (number of adhered cells) (vitronectin; [5])	Cell Adhesion-Inhibitory effect Against Fibronectin (number of adhered cells) (fibronectin; concentration 0.5 mg/ml)	Cell Adhesion-Inhibitory effect Against Fibronectin (number of adhered cells) (fibronectin; concentration 1.0 mg/ml)	Cell Adhesion-Inhibitory effect Against Fibronectin (number of adhered cells) (fibronectin; concentration 1.5 mg/ml)	Cell Adhesion-Inhibitory effect Against Fibronectin (number of adhered cells) (fibronectin; concentration .25 mg/ml)	Platelet Coagulation-Inhibitory Action IC50, ADP Stimulation [1]	Platelet Coagulation-Inhibitory Action IC50, Collagen Stimulation [1]
N=C(N)NCCC[C@H](N)C(=O)NCC(=O)N[C@@H](CC(=O)O)C(=O)O [ArgGlyAsp, H--(Arg--Gly--Asp)--OH, reference compound]	171 cell/well	132 cell/well	104 cell/well	73 cell/well	162 cell/well	141 cell/well	83 cell/well	157 cell/well	27 µg/mL	22 µg/mL
CM-Chitin Arg-Gly-Asp-Ser (RGDS; also: conjugated to CM-chitin) [CM--chitin derivative-18]	125 cell/well	83 cell/well	56 cell/well	44 cell/well	101 cell/well	75 cell/well	52 cell/well	133 cell/well	21 µg/mL	10 µg/mL
CM-Chitin Gly-Arg-Gly-Asp-Ser (GRGDS; also: conjugated to CM-chitin) [CM--chitin derivative-7]	143 cell/well	85 cell/well	79 cell/well	55 cell/well	98 cell/well	84 cell/well	71 cell/well	119 cell/well	30 µg/mL	16 µg/mL
CM-Chitin-Arg-Gly-Asp-Ser ({CM‑Chitin}-RGDS) [CM--chitin derivative-1, rate of introduction of Arg-Gly-Asp-Ser fragments about 10%]	148 cell/well	89 cell/well	72 cell/well	41 cell/well	106 cell/well	79 cell/well	69 cell/well	131 cell/well	15 µg/mL	10 µg/mL
CM-Chitin-Gly-Arg-Gly-Asp-Ser-Pro [CM--chitin derivative-19]	130 cell/well	92 cell/well	63 cell/well	39 cell/well	106 cell/well	79 cell/well	56 cell/well	127 cell/well	19 µg/mL	5 µg/mL
CM-chitin-Arg-Gly-Asp-Ser-Gly-NH2 ({CM‑Chitin}-RGDSG-NH2; also: conjugated to CM-chitin) [CM--chitin derivative-17]	114 cell/well	76 cell/well	48 cell/well	33 cell/well	84 cell/well	61 cell/well	35 cell/well	99 cell/well	14 µg/mL	5 µg/mL
Itaconyl Derivative of CM-Chitin Arg-Gly-Asp-Ser (RGDS; also: conjugated to itaconyl CM-chitin) [CM--chitin derivative-5]	129 cell/well	91 cell/well	80 cell/well	48 cell/well	105 cell/well	86 cell/well	72 cell/well	136 cell/well	17 µg/mL	12 µg/mL
Maleyl Derivative of CM-Chitin Arg-Gly-Asp-Ser (RGDS; also: conjugated to maleyl CM-chitin) [CM--chitin derivative-3]	141 cell/well	87 cell/well	69 cell/well	49 cell/well	100 cell/well	77 cell/well	55 cell/well	123 cell/well	21 µg/mL	7 µg/mL
Phthaloyl derivative of CM-Chitin Arg-Gly-Asp-Ser (RGDS; also: conjugated to phthaloyl CM-chitin) [CM--chitin derivative-4]	145 cell/well	90 cell/well	67 cell/well	45 cell/well	121 cell/well	80 cell/well	67 cell/well	141 cell/well	29 µg/mL	15 µg/mL
